The EC50 is the concentration needed to bring the measured effect to its halfway point.

Each structure is given as a SMILES string. Values after ≈ are worked out from the molar mass of the structure shown.

Format in all cases: functional, organism-based
In test [1] the test system is Monilinia laxa. The test is described as follows: Fungitoxicity against highly fenhexamid resistant Monilinia laxa MF-2 assessed as reduction in mycelial growth measured at 25 degC after 4 days. Conditions: MF-2, 96 h.
In test [2] the test system is Monilinia laxa. The test is described as follows: Fungitoxicity against moderately fenhexamid resistant Monilinia laxa MF-6 assessed as reduction in mycelial growth measured at 25 degC after 4 days. As to conditions: MF-6, 96 h.
Test [3] concerns Monilinia laxa. The test is described as follows: Fungitoxicity against wild type Monilinia laxa K2 assessed as reduction in mycelial growth measured at 25 degC after 4 days. Conditions: K2, 96 h.
Test [4] has as its system Monilinia laxa. The test is described as follows: Fungitoxicity against moderately fenhexamid resistant Monilinia laxa MF-1 assessed as reduction in mycelial growth measured at 25 degC after 4 days. As to conditions: MF-1, 96 h.
Test [5] deals with Monilinia laxa. The test is described as follows: Fungitoxicity against highly fenhexamid resistant Monilinia laxa MF-3 assessed as reduction in mycelial growth measured at 25 degC after 4 days. Conditions: MF-3, 96 h.
Test [6] relates to Monilinia laxa. The test is described as follows: Fungitoxicity against moderately fenhexamid resistant Monilinia laxa MF-7 assessed as reduction in mycelial growth measured at 25 degC after 4 days. As to conditions: MF-7, 96 h.
For test [7], the system named is Monilinia laxa. The test is described as follows: Fungitoxicity against moderately fenhexamid resistant Monilinia laxa MF-22 assessed as reduction in mycelial growth measured at 25 degC after 4 days. As to conditions: MF-22, 96 h.
The test system of test [8] is Monilinia laxa. The test is described as follows: Fungitoxicity against moderately fenhexamid resistant Monilinia laxa MF-4 assessed as reduction in mycelial growth measured at 25 degC after 4 days. As to conditions: MF-4, 96 h.
Test [9] concerns Monilinia laxa. The test is described as follows: Fungitoxicity against moderately fenhexamid resistant Monilinia laxa MF-8 assessed as reduction in mycelial growth measured at 25 degC after 4 days. As to conditions: MF-8, 96 h.
The test system of test [10] is Monilinia laxa. The test is described as follows: Fungitoxicity against highly fenhexamid resistant Monilinia laxa MF-5 assessed as reduction in mycelial growth measured at 25 degC after 4 days. As to conditions: MF-5, 96 h.

Turning to `CC(C)NC(=O)N1CC(=O)N(c2cc(Cl)cc(Cl)c2)C1=O` [IPRODIONE], the concentration giving a half-maximal response (EC50) was 0.24 µg/mL (≈ 0.727 µM) in test [1]; 0.32 µg/mL (≈ 0.969 µM) in [2]; 0.25 µg/mL (≈ 0.757 µM) in [3]; 0.26 µg/mL (≈ 0.787 µM) in [4]; 0.25 µg/mL (≈ 0.757 µM) in test [5]; 0.23 µg/mL (≈ 0.697 µM) in test [6]. Also, the EC50 was 0.21 µg/mL (≈ 0.636 µM) in test [7], 0.19 µg/mL (≈ 0.575 µM) in test [8], 0.35 µg/mL (≈ 1.06 µM) in test [9] and 0.25 µg/mL (≈ 0.757 µM) in test [10].

Take `CCCN(CCOc1c(Cl)cc(Cl)cc1Cl)C(=O)n1ccnc1` [PROCHLORAZ]: the EC50 in test [1] was determined as 0.07 µg/mL (≈ 0.186 µM); in test [2] it was 0.03 µg/mL (≈ 0.0796 µM); in test [3], 0.01 µg/mL (≈ 0.0265 µM); in [4], 0.01 µg/mL (≈ 0.0265 µM); in test [5] it was 0.02 µg/mL (≈ 0.0531 µM); in test [6] it was 0.08 µg/mL (≈ 0.212 µM). The concentration giving a half-maximal response (EC50) in [7] turned out to be 0.02 µg/mL (≈ 0.0531 µM); in [8], 0.04 µg/mL (≈ 0.106 µM); in test [9], 0.02 µg/mL (≈ 0.0531 µM); in test [10] it was 0.01 µg/mL (≈ 0.0265 µM).

Turning to `COC(=O)N(OC)c1ccccc1COc1ccn(-c2ccc(Cl)cc2)n1` [PYRACLOSTROBIN], the EC50 in test [1] was found to be 0.5 µg/mL (≈ 1.29 µM); in test [2], 0.1 µg/mL (≈ 0.258 µM); in [3], 0.3 µg/mL (≈ 0.774 µM); in test [4] it was 0.2 µg/mL (≈ 0.516 µM); in test [5] it was 0.4 µg/mL (≈ 1.03 µM); in test [6], 0.4 µg/mL (≈ 1.03 µM). The EC50 in test [7] amounted to 0.2 µg/mL (≈ 0.516 µM); in test [8], 0.3 µg/mL (≈ 0.774 µM); in test [9], 0.4 µg/mL (≈ 1.03 µM); in [10], 0.4 µg/mL (≈ 1.03 µM).

In the case of `CCCN(CC)CC1COC2(CCC(C(C)(C)C)CC2)O1` (stereo not given) [SPIROXAMINE], the EC50 worked out at 3.7 µg/mL (≈ 12.4 µM) in [1]; 12 µg/mL (≈ 40.3 µM) in [2]; 3.5 µg/mL (≈ 11.8 µM) in test [3]; 3.8 µg/mL (≈ 12.8 µM) in test [4]; 3.6 µg/mL (≈ 12.1 µM) in test [5]; 3.5 µg/mL (≈ 11.8 µM) in [6]. Further, the 50% effective concentration (EC50) in [7] amounted to 3.3 µg/mL (≈ 11.1 µM); in test [8], 2.9 µg/mL (≈ 9.75 µM); in test [9], 3.2 µg/mL (≈ 10.8 µM); in test [10] it was 3.5 µg/mL (≈ 11.8 µM).

Regarding `CCCCCCCCCCCCCN1CC(C)OC(C)C1` (stereo not given) [TRIDEMORPH], the EC50 in [1] is 0.07 µg/mL (≈ 0.235 µM); in test [2], 0.6 µg/mL (≈ 2.02 µM); in test [3], 0.1 µg/mL (≈ 0.336 µM); in test [4] it was 0.4 µg/mL (≈ 1.34 µM); in [5], 0.11 µg/mL (≈ 0.37 µM); in [6], 0.09 µg/mL (≈ 0.302 µM). Besides, the EC50 in [7] was 0.1 µg/mL (≈ 0.336 µM); in [8], 0.12 µg/mL (≈ 0.403 µM); in [9] it was 0.4 µg/mL (≈ 1.34 µM); in [10], 0.08 µg/mL (≈ 0.269 µM).
